# Measurements from ChEMBL document CHEMBL1201862, “PubChem BioAssay data set” (2004).
# Activity calls are given as the source filed them.
# Key:
# [1] = protection from phage-mediated lysis, alamar blue read-out – E. coli UTI89, K1F phage, bacterial capsule biogenesis inhibitors (AID 488966); format: functional
# [2] = biological target: T1, E3 ubiquitin-protein ligase XIAP (Homo sapiens, UniProt P98170); assay: small molecules displacing peptide from XIAP – biochemical, IAP family, fluorescence polarization (AID 1018); format: functional
# T1 sequence (P98170 whole entry): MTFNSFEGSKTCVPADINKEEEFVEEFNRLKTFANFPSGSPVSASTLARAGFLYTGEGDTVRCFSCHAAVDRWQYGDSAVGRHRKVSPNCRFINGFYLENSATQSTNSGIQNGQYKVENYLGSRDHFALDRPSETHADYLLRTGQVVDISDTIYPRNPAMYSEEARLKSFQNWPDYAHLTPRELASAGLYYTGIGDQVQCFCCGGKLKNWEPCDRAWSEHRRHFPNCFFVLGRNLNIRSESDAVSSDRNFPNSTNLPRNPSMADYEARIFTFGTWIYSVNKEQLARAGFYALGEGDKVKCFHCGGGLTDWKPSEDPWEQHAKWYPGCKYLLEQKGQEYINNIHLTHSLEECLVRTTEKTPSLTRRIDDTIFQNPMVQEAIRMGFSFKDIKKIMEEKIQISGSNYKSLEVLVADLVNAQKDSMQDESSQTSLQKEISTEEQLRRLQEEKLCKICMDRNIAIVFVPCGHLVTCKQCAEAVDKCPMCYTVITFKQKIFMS
# [3] = biological target: T1, E3 ubiquitin-protein ligase XIAP; assay: Counter Screen using XIAP-Bir3 for Chemical Antagonists of Bir1/2 domains of IAP-family anti-apoptotic proteins. [Related pubchem assays (depositor defined):AID1018, AID1449, AID1514, AID1638, AID1749, AID1750, AID488957, AID488963]
# BJ [4] = assay: cells; format: functional, cell-based; conditions: Homo sapiens
# [5] = biological target: Envelope glycoprotein gp160 (Human immunodeficiency virus 1, UniProt Q6QLK5); assay: cell-free HIV fusion peptide-binding blockers – biochemical, uHTS, fluorescence dequenching, […] (AID 1986)
# Envelope glycoprotein gp160, sequence (Q6QLK5 whole entry, the tested form may be a part): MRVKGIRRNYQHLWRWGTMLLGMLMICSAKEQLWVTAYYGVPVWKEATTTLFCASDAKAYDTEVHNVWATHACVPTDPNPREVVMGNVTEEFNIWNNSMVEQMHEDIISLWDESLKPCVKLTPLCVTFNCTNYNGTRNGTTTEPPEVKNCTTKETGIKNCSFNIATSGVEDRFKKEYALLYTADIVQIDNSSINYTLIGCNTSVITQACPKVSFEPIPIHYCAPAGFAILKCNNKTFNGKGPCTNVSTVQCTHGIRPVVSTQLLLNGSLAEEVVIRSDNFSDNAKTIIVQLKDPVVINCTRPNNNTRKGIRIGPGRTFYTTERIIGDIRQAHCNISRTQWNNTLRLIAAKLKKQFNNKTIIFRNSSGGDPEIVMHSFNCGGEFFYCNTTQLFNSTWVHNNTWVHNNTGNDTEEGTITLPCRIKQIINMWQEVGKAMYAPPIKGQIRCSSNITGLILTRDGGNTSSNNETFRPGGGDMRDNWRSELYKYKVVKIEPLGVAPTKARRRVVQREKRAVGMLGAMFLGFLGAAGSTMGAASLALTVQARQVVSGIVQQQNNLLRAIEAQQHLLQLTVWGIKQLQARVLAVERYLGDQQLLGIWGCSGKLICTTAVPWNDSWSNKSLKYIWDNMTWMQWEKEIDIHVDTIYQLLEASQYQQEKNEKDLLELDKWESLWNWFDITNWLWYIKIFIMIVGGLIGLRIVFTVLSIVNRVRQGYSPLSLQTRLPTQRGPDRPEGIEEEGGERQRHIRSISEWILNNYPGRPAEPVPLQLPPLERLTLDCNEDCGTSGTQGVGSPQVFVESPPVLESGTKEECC
# BJ [6] = assay: BJ-TERT-LT-ST fibroblast viability loss – cell-based, RAS-independent, luminescence, dose response (AID 1935); format: functional; conditions: Homo sapiens;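 further: BJ fibroblasts immortalized with TERT plus LT and ST oncogenes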
# BJ [7] = assay: BJ-TERT fibroblast viability loss – cell-based, RAS-independent, luminescence, dose response (AID 1933); format: functional; conditions: Homo sapiens
# [8] = DRD fibroblast viability loss – cell-based, non-viral oncogenic, luminescence, dose response (AID 1934); format: functional; conditions: Homo sapiens
# Genome polyprotein = Genome polyprotein (dengue virus type 2, UniProt P29990); assay: flavivirus cap methylation enzyme inhibition – biochemical, confirmation dose response, primary screen (AID 588689); format: functional
# [9] = reduction of Shn3 3'UTR-driven luciferase in osteoblasts – cell-based, Clone20 osteoblasts, firefly luciferase, cherry-picked, dose response (AID 624132); format: functional;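 further: firefly luciferase luminescence from reporter carrying the Shn3 3'UTR in osteoblasts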
# Beta Lactamase = Beta Lactamase (Pseudomonas aeruginosa, UniProt Q932Y6); assay: BLA reporter interference, concentration series – BLA reporter cells, FRET fluorescence, artefact control for NOD2-RIPK2 interaction inhibitor project, dose response (AID 651552); format: functional, cell-based
# Beta Lactamase, sequence (Q932Y6 whole entry): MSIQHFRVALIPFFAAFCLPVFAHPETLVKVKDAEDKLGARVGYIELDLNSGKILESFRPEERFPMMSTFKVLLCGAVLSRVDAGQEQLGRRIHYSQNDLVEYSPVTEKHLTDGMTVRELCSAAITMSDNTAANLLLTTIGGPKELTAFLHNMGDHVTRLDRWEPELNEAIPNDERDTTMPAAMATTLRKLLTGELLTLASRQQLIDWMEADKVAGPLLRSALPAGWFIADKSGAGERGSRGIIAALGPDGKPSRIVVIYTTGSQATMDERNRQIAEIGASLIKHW
# [10] = Luminescence Cell-Based Dose Confirmation HTS to Identify Inhibitors of Platelet Dense Granule Release. [Related pubchem assays: 1663 (Primary HTS), 1678 (Summary of Project)]; format: functional
# [11] = Fluorescence-based cell-based high throughput dose response assay for inhibitors of the interaction of nucleotide-binding oligomerization domain containing 2 (NOD2) and the receptor-interacting serine-threonine kinase 2 (RIPK2).; format: functional; conditions: Homo sapiens
# [12] = non-specific 3'UTR reporter inhibition in Clone20-Shn3RL – cell-based, Renilla luciferase, cherry-picked, counter-screen for Shn3 inhibitor project, dose response (AID 624133); format: functional
# [13] = loss of viability in HepG2 cells – cell-based, CellTiter-Glo, cherry-picked, cytotoxicity control for Shn3 inhibitor project, dose response (AID 624134); format: functional
# [14] = biological target: NACHT, LRR and PYD domains-containing protein 1 (Homo sapiens, UniProt Q9C000); assay: NALP1 inhibitors in yeast, dose response, luminescent (AID 488860); format: functional
# NACHT, LRR and PYD domains-containing protein 1, sequence (Q9C000 1-1212 limits assumed): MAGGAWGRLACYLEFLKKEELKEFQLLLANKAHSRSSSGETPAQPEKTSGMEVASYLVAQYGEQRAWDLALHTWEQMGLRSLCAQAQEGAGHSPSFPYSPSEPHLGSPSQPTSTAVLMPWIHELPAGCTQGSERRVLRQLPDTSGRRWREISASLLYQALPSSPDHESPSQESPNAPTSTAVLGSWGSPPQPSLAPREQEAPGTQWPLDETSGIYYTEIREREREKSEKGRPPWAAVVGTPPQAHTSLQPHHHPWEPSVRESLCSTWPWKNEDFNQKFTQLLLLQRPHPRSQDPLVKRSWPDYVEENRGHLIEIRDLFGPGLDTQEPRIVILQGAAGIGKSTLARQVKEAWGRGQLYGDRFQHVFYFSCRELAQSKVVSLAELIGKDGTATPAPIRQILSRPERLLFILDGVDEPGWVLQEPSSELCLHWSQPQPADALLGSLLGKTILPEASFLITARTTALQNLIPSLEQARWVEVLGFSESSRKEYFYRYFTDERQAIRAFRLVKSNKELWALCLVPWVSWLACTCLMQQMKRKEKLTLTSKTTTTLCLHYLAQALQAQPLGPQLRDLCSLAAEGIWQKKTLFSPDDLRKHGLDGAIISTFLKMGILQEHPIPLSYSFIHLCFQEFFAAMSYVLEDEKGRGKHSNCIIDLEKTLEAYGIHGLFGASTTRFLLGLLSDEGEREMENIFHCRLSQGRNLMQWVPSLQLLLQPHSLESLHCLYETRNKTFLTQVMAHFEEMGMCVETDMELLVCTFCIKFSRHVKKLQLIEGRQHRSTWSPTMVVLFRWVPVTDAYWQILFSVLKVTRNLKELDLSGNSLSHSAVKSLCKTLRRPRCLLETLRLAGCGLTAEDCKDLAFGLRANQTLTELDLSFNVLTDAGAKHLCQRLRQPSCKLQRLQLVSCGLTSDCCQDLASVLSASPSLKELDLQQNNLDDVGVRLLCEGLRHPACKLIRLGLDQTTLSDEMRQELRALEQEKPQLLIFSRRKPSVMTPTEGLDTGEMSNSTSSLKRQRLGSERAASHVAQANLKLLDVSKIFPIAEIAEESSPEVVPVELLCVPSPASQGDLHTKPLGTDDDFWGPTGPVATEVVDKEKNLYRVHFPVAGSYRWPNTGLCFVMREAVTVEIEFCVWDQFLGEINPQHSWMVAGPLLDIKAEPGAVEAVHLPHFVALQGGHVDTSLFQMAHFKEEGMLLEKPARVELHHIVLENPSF
# NACHT, LRR and PYD domains-containing protein 1, sequence (Q9C000 1213-1473 limits assumed): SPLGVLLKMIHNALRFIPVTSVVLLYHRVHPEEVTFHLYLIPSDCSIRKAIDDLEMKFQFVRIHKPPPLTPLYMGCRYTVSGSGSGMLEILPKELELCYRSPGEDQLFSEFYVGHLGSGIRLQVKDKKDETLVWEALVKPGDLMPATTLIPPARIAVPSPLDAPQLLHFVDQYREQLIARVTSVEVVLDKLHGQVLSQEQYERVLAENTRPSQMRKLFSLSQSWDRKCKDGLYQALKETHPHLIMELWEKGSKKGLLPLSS
# Beta-galactosidase = Beta-galactosidase (Escherichia coli, UniProt Q8VNN2); assay: detection-enzyme interference by beta-gal modulators – biochemical, E. coli enzyme, set 3, artefact control for CCR6 antagonist project, dose response (AID 504712); format: functional
# Saccharomyces cerevisiae = assay: S. cerevisiae Caspase-1/ASC signal blockers IC50, NALP1 inhibitor project selectivity test (AID 488863); format: functional, organism-based
# [15] = biological target: Luciferin 4-monooxygenase (Photinus pyralis, UniProt P08659); assay: inhibition of purified Photinus pyralis luciferase – biochemical, luminescence, dose response (AID 1891)
# Luciferin 4-monooxygenase, sequence (P08659 whole entry): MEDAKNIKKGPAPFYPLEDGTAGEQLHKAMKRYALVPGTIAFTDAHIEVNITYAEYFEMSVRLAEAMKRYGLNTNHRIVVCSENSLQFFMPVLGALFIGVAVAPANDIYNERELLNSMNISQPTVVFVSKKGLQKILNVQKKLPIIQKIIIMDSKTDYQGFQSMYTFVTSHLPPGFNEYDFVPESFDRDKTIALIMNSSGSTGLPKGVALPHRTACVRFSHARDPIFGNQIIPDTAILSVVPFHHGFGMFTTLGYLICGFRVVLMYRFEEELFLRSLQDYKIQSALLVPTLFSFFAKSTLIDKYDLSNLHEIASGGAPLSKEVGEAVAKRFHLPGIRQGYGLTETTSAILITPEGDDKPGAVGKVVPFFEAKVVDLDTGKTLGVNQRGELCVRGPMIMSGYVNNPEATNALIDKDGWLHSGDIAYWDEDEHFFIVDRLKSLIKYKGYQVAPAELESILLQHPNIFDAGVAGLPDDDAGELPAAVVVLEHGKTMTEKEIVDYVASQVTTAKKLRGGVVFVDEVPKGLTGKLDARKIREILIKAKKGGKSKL
# HEK293 [16] = assay: inhibition of NOD1-driven NF-kB reporter – cell-based, luminescence, uHTS, primary screen (AID 1578); format: functional; conditions: Homo sapiens
# [17] = biological target: Nucleotide-binding oligomerization domain-containing protein 2 (Homo sapiens, UniProt Q9HC29); assay: PubChem AID 2334; format: functional
# HEK293 [18] = assay: NOD2 signaling inhibitors in MDP-stimulated cells, cell-based, uHTS, luminescence (AID 2001); format: functional; conditions: Homo sapiens
# [19] = biological target: T2, Nucleotide-binding oligomerization domain-containing protein 1 (Homo sapiens, UniProt Q9Y239); assay: blockers of NOD1 pathway activity – revised, SAR follow-up (AID 2333); format: functional
# T2 sequence (Q9Y239 whole entry): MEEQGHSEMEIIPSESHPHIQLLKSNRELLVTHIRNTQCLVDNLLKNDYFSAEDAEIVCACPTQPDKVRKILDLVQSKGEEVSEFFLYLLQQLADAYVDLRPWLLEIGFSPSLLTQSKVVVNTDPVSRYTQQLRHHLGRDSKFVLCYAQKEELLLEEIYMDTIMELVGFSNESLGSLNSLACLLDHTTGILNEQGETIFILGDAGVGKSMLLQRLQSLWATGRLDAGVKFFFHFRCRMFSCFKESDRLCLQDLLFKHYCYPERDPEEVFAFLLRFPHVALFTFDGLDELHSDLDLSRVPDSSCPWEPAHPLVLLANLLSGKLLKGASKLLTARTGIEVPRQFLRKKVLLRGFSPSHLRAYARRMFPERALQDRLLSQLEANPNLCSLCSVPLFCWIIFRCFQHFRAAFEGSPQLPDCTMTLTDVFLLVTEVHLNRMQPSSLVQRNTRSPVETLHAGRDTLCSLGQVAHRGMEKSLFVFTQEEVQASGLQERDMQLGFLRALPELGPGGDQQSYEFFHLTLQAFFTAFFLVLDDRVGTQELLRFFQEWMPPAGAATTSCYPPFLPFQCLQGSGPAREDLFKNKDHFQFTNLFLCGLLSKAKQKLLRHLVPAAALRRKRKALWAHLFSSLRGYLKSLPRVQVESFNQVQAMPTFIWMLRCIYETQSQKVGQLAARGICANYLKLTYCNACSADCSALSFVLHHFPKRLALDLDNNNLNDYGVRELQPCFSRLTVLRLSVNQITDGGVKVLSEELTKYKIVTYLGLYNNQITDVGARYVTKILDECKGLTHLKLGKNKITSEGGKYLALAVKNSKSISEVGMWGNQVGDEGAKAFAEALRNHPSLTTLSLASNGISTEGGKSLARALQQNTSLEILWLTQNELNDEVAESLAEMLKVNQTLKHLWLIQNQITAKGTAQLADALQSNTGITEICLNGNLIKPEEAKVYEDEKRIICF
# HEK293 [20] = assay: cells; conditions: Homo sapiens
# Tumor necrosis factor = Tumor necrosis factor (Homo sapiens, UniProt P01375); assay: analog potency on TNFa NF-kB signaling – cell-based, revised, SAR follow-up (AID 2337); format: functional
# HEK293 [21] = assay: cells; format: functional, cell-based; conditions: Homo sapiens
# HEK293 [22] = assay: cells; format: functional, cell-based; conditions: Homo sapiens; remark: listed apart in the source
# [23] = biological target: T3, Intestinal-type alkaline phosphatase (Homo sapiens, UniProt P09923); assay: activation of human intestinal alkaline phosphatase – biochemical, luminescent, uHTS hits, set 2, dose response (AID 488817); format: functional;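 further: potency of activators that raise enzyme activity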
# T3 sequence (P09923 whole entry): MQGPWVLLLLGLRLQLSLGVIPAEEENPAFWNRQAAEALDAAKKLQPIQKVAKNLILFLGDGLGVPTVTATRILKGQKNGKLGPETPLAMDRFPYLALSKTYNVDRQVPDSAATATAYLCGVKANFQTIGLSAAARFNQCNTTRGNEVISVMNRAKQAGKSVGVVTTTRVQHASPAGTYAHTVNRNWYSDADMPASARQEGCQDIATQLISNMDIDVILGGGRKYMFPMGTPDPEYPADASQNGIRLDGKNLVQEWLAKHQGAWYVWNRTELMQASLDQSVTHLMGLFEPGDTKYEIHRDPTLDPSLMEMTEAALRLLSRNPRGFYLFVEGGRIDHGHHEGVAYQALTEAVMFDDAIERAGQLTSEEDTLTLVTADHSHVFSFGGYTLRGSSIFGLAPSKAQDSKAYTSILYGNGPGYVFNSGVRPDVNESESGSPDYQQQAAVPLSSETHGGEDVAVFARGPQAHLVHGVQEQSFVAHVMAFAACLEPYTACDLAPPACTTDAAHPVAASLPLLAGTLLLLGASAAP
# [24] = biological target: T3, Intestinal-type alkaline phosphatase; assay: human intestinal alkaline phosphatase activators, dose response, biochemical, luminescence, uHTS hits (AID 463120); format: functional
# [25] = biological target: T4, Alkaline phosphatase, tissue-nonspecific isozyme (Homo sapiens, UniProt P05186); assay: activation of tissue-nonspecific alkaline phosphatase – biochemical, TNAP isozyme, human IAP uHTS hits, selectivity assay for human IAP activator project, dose response (AID 488886); format: functional;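 further: potency of compounds raising TNAP activity as a selectivity check on IAP activators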
# T4 sequence (P05186 whole entry): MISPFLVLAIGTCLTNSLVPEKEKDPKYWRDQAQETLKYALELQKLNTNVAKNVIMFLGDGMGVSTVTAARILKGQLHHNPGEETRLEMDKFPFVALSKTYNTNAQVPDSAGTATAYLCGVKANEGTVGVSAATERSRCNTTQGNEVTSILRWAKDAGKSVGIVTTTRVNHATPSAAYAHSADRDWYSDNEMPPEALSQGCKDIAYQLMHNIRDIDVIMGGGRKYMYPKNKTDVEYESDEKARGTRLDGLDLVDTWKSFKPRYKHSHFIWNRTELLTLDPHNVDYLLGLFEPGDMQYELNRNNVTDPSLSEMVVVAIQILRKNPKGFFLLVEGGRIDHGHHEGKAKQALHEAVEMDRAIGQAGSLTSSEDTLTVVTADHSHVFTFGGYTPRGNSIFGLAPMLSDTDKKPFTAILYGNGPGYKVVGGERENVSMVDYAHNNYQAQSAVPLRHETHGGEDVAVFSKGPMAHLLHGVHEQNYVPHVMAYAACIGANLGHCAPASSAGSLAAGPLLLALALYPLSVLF
# [26] = biological target: Intestinal-type alkaline phosphatase (Mus musculus, UniProt P24822); assay: PubChem AID 488874; format: functional
# Intestinal-type alkaline phosphatase (Mus musculus, UniProt P24822), sequence (P24822 whole entry): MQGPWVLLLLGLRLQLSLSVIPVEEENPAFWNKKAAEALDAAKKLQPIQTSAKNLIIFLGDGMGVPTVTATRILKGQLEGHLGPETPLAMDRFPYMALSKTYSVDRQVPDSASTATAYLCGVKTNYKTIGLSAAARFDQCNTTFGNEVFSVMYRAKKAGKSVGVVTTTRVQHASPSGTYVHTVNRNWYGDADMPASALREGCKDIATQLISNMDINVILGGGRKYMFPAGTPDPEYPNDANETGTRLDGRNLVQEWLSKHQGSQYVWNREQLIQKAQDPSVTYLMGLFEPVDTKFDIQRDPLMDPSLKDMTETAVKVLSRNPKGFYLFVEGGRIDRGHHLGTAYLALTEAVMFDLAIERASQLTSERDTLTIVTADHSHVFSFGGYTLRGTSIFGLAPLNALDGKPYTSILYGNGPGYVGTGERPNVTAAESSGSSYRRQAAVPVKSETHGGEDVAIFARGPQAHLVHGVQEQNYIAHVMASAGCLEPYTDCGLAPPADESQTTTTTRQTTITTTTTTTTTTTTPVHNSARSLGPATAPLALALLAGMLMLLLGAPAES
# [27] = biological target: Polyadenylate-binding protein 1 (Homo sapiens, UniProt P11940); assay: PABP inhibition in translation initiation, SAR follow-up (AID 435018); format: functional
# [28] = biological target: Eukaryotic translation initiation factor 4H (Homo sapiens, UniProt Q15056); assay: inhibitors of translation initiation factor eIF4H – SAR follow-up (AID 435011); format: functional
# [29] = biological target: DNA dC->dU-editing enzyme APOBEC-3A (Homo sapiens, UniProt P31941); assay: A3A deaminase inhibition for selectivity – biochemical, dose response (AID 504722); format: functional
# DNA dC->dU-editing enzyme APOBEC-3A, sequence (P31941 whole entry): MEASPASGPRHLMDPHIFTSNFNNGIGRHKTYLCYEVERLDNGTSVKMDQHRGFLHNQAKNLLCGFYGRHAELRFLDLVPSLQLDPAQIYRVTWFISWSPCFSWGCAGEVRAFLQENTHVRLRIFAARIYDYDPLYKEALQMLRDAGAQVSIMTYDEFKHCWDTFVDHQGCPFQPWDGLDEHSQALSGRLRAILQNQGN
# [30] = biological target: DNA dC->dU-editing enzyme APOBEC-3G (Homo sapiens, UniProt Q9HC16); assay: Dose Response confirmation of small molecule APOBEC3G DNA Deaminase Inhibitors via a fluorescence-based single-stranded DNA deaminase assay. [Related pubchem assays (depositor defined):AID493012, AID493028]; format: functional
smiles,measurement,setting,value
COc1ccc(-c2nnc(NC(=O)c3cc(C)on3)s2)cc1,IC50,[1],> 75 µM (active)
same,IC50,[2],> 100 µM (not active)
same,IC50,[3],> 100 µM (inactive)
O=C(O)CCN1C(=O)/C(=C\c2cccc(Oc3ccccc3)c2)SC1=S,EC50,BJ [4],> 150 µM (not active)
same,IC50,[5],26.8 µM (active)
same,EC50,BJ [6],> 150 µM (inconclusive)
same,EC50,BJ [7],> 150 µM (not active)
same,EC50,[8],> 150 µM (not active)
same,IC50,Genome polyprotein,37.4 µM (active)
O=C1CC(Sc2nnnn2-c2ccccc2)C(=O)N1c1cccc(Cl)c1 (stereo not given),AC50,[9],8.53 µM (active)
same,IC50,Beta Lactamase,12.6 µM (inactive)
same,EC50,[10],19.1 µM (active)
same,IC50,[11],2.81 µM (active)
same,AC50,[12],8.88 µM (active)
same,AC50,[13],24.5 µM (active)
same,IC50,[14],5.83 µM (active)
same,IC50,Beta-galactosidase,> 66.6 µM (inactive)
same,IC50,Saccharomyces cerevisiae,5.13 µM (active)
same,EC50,[15],> 112 µM (not active)
NC(=O)C1CCN(c2ccc(S(=O)(=O)N3CCC(Cc4ccccc4)CC3)cn2)CC1,EC50,HEK293 [16],4.32 µM (active)
same,IC50,[17],9.14 µM (active)
same,IC50,HEK293 [18],> 20 µM (inactive)
same,IC50,[19],5.76 µM (active)
same,IC50,HEK293 [20],> 20 µM (inactive)
same,IC50,Tumor necrosis factor,12.4 µM (active)
same,IC50,HEK293 [21],> 20 µM (inactive)
same,IC50,HEK293 [22],> 20 µM (inactive)
CN(Cc1ccccc1)C(=O)c1nc[nH]c1C(=O)Nc1nccs1,EC50,[23],15.8 µM (active)
same,EC50,[24],10.1 µM (active)
same,EC50,[25],16.6 µM (active)
same,IC50,[26],74.8 µM (active)
COc1cc(/C=N\NC(=O)c2ccccc2O)ccc1OCC(=O)Nc1ccc(C)c(C)c1,IC50,[27],> 100 µM (inactive)
same,IC50,[28],34.6 µM (active)
O=[N+]([O-])c1ccccc1/C=N/n1c(S)nnc1-c1ccccc1,IC50,[29],> 100 µM (inactive)
same,IC50,[30],4.25 µM (active)
